Measurements: paper PMC9283466, “In silico identification of two peptides with antibacterial activity against multidrug-resistant Staphylococcus aureus” (NPJ Biofilms and Microbiomes, 2022)
Converted amounts (≈) assume the structure as drawn. Bridge positions count the residues as written; N and C are the ends. Peptide text beside a SMILES is read from it.

Key:
Ent. faecalis JH2-2 = experiment: microbe, parasite or virus in culture; format: cell-based, Enterococcus faecalis
Procedure: (§1) To determine the antimicrobial activity of the new antimicrobial peptides, HG2 and HG4, their minimum inhibitory concentrations (MICs) were determined by broth microdilution method[51] in cation adjusted Mueller Hinton broth (MHB) following the International Organisation for Standardisation (ISO) 20776-1 standard for MIC testing using a final bacterial inoculum of 5 × 10^5 CFU/ml[52]. […] The peptides dissolved in sterile distilled water were added to bacteria culture and incubated overnight at appropriate conditions. The MICs of the peptides and comparator antibiotics were recorded after 18–24 h. The minimum bactericidal concentrations (MBCs) were also determined and were taken as the lowest concentration of the antimicrobial that prevented the growth of bacterial cells after the subculture of cells (from MIC treatment) onto antibiotic-free media.

Sal. typhimurium SL1344 = experiment: microbe, parasite or virus in culture; format: cell-based, Salmonella enterica serovar Typhimurium
Procedure: as §1

[1] = system: MRSA USA300 infection in G. mellonella; experiment: In vivo efficacy, G. mellonella MRSA USA300 infection model; set-up: species or system Galleria mellonella; conditions: MRSA USA300 LD; for survival rate higher than the control group: peptides at 1x MIC; for increase in survival versus untreated control group / survival rate: peptides at 3x MIC
Procedure: All procedures of larvae rearing, injection and G. mellonella killing assays were conducted using validated methods. In each assay, ten larvae weighing between 280–300 mg each were randomly selected. Larvae with the previous melanisation of the cuticle were excluded from the experiments. All experiments were designed in at least four experimental and biological replicates.
To determine the LD50 and LD of S. aureus MRSA USA300 in G. mellonella, an inoculum of 10 µl of MRSA USA300 suspension in PBS 1X (10^3 to 10^6 CFU/larvae) was injected into the larvae haemocoel using insulin syringes (Becton Dickinson, USA). Larvae inoculated with PBS and larvae not inoculated were used as negative controls.
The efficacy of the peptides HG2 and HG4 to control MRSA USA300 infection in vivo, was evaluated following the protocol by ref. [43]. The groups of G. mellonella larvae were infected with the predetermined lethal dose of MRSA USA300. After 30 min of the larvae injection with the bacteria, the peptides were injected at 1x MIC and 3x MIC concentrations respectively. Larvae injected with PBS solution, and HG2 or HG4 peptide solution (1x MIC or 3x MIC) alone were used as negative controls. Injected larvae were maintained at 37 °C in the dark and their survival was monitored and analyzed as above.

Ent. faecalis = experiment: microbe, parasite or virus in culture; format: cell-based, Enterococcus faecalis; conditions: Ent. faecalis; Supplementary Table 5
Procedure: as §1

Sal. typhimurium = experiment: microbe, parasite or virus in culture; format: cell-based, Salmonella enterica serovar Typhimurium; conditions: Sal. typhimurium; Supplementary Table 5
Procedure: as §1

List. monocytogenes = experiment: microbe, parasite or virus in culture; format: cell-based, Listeria monocytogenes
Procedure: as §1

[2] = system: L. monocytogenes NCTC 11994; experiment: microbe, parasite or virus in culture; format: cell-based, Listeria monocytogenes; conditions: NCTC 11994
Procedure: as §1

P. aeruginosa = experiment: microbe, parasite or virus in culture; format: cell-based, Pseudomonas aeruginosa
In short: (§2)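 Readout was the lowest concentration inhibiting visible growth after 18–24 h, with MBC taken as the lowest concentration giving no growth once cells from MIC wells were plated on antibiotic-free media. Testing followed ISO 20776-1 by broth microdilution (cation-adjusted MHB, 5 × 10^5 CFU/ml final inoculum).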

EMRA-15 = experiment: microbe, parasite or virus in culture; format: cell-based, Staphylococcus aureus
In short: as §2

Compound | MIC (Ent. faecalis JH2-2) | MIC (Sal. typhimurium SL1344) | survival rate higher than the control group [1] | increase in survival versus untreated control group [1] | survival rate [1] | Minimum inhibitory Concentrations MICs (Ent. faecalis) | Minimum inhibitory Concentrations MICs (Sal. typhimurium) | Minimum inhibitory Concentrations MICs (List. monocytogenes) | MIC [2] | Minimum inhibitory Concentrations MICs (P. aeruginosa) | Minimum inhibitory Concentrations MICs (EMRA-15)
CC[C@H](C)[C@H](NC(=O)[C@H](CC(C)C)NC(=O)[C@H](CC(C)C)NC(=O)[C@H](CC(C)C)NC(=O)[C@H](CCCCN)NC(=O)[C@H](CCCCN)NC(=O)[C@@H](N)CCSC)C(=O)N[C@@H](CC(C)C)C(=O)N[C@@H](Cc1ccccc1)C(=O)N[C@H]1CSSC[C@@H](C(=O)N[C@@H](CCCCN)C(=O)N[C@@H](CCCCN)C(=O)N[C@@H](C)C(=O)N2CCC[C@H]2C(N)=O)NC(=O)CNC(=O)[C@H](C)NC(=O)[C@H](CC(C)C)NC(=O)[C@H](C)NC(=O)[C@H](CC(C)C)NC(=O)[C@H](C)NC(=O)[C@H](CC(C)C)NC1=O [HG2] (H-MKKLLLILFCLALALAGCKKAP-NH2; disulfide 10-18; N-terminus assumed) | 256 µg/mL (≈ 109 µM) | 256 µg/mL (≈ 109 µM) | ~ 20% | 4.6 fold | 78% | – | – | – | – | – | –
CC[C@H](C)[C@H](NC(=O)[C@H](CC(C)C)NC(=O)[C@H](CC(C)C)NC(=O)[C@H](C)NC(=O)CNC(=O)CNC(=O)[C@@H](NC(=O)[C@@H](NC(=O)[C@H](CC(C)C)NC(=O)[C@H](C)NC(=O)[C@H](CC(C)C)NC(=O)CNC(=O)[C@H](CC(C)C)NC(=O)[C@@H](N)C(C)C)[C@@H](C)CC)C(C)C)C(=O)N[C@@H](CCCCN)C(=O)N[C@@H](CCCCN)C(=O)N[C@@H](CCCCN)C(=O)N[C@@H](CCC(N)=O)C(=O)N[C@@H](C)C(=O)N[C@@H](CCCCN)C(=O)N[C@@H](CO)C(N)=O [HG4] (H-VLGLALIVGGALLIKKKQAKS-NH2; N-terminus and C-terminus assumed) | – | – | ~ 20% | 4.4 fold | 75% | 128 µg/mL | 512 µg/mL | 512 µg/mL | 512 µg/mL (≈ 242 µM) | ≥ 1024 µg/mL | 32 µg/mL
